In patent US12252457B2, “Compositions and methods for reducing tactile dysfunction, anxiety, and social impairment” (President and Fellows of Harvard College, priority 2018, dated 2025):
Counter-ions that a name gives are not always drawn.

Assays:
[1] = biological target: T1, Transporter, GABA (Rattus norvegicus, UniProt P23978); assay: GABA transporter radioligand binding assay (Cat # 226400)
T1 construct: tissue Eurofins Panlabs 226400; host or cells: rat brain membranes (own knowledge of the vendor's assay and of the cited Shank et al. 1990 method)
Method: The activity of compound Compound 5 was evaluated in Radioligand Binding assays. Methods employed herein have been adapted from the scientific literature to maximize reliability and reproducibility. Reference standards were run as an integral part of each assay to ensure the validity of the results obtained. Where presented, IC50 values were determined by a non-linear, least squares regression analysis using MathIQ™ (ID Business Solutions Ltd., UK). Where inhibition constants (K) are presented, the Ki values were calculated using the equation of Cheng and Prusoff (Cheng, Y., Prusoff, W. H., Biochem. Pharmacol. 22:3099-3108, 1973) using the observed IC50 of the tested compound, the concentration of radioligand employed in the assay, and the historical values for the KD of the ligand (obtained experimentally at Eurofins Panlabs, Inc.). Where presented, the Hill coefficient (nH), defining the slope of the competitive binding curve, was calculated using MathIQ™. […] Where IC50, Ki and/or nH data are presented without Standard Error of the Mean (SEM), data are insufficient to be quantitative.
Biochemical assay results are presented as the percent inhibition of specific binding or activity. All other results are expressed in terms of the quantitation method of that assay. For primary assays, only the lowest concentration with a significant response, judged by the criteria of the assay, is shown in this summary. […] Unless otherwise requested, primary screening in duplicate with quantitative data (e.g., IC50±SEM, Ki ±SEM and nH) are shown where applicable for individual requested assays.
J Neurochem. 54:2007-2015.

[2] = system: low-threshold mechanoreceptor neurons (LTMRs); assay: In vivo multiunit electrode recordings in the L4 DRG; set-up: species or system mouse
From the text: FIGS. 20A-20O show isoguvacine attenuates tactile sensitivity through reduced excitability of peripheral, low-threshold mechanosensory neurons. FIG. 20A: Diagram for in vivo dorsal root ganglion (DRG) multi-unit electrode recordings, showing tetrode placement into the left L4 ganglia. FIG. 20B: Activity traces of two putative neurons (units) in response to a brush stimulus. FIG. 20C: Activity traces of two putative neurons (units) in response to a light air puff stimulus (1 PSI). FIGS. 20D-20G: Example unit identified during the spike sorting process. Average waveform at each electrode site (FIG. 20D, FIG. 20E), and inter-spike interval (FIG. 20F, FIG. 20G). FIG. 20H: Representative activity raster plots for multiple putative LTMRs in multiple mice over the duration of a recording experiment in controls and Advillin^Cre; Gabrb3^f/f mice. Mice received a subcutaneous injection of either saline or isoguvacine (2 mg/kg) during the experiment, and activity of light-touch responsive units in response to a light brush stimulus was assessed over a 90-minute period. FIG. 20I: Average firing frequency of LTMRs over the duration of each recording experiment, following subcutaneous injection of either saline or isoguvacine (2 mg/kg). Repeated measures, two-way ANOVA with post-hoc Dunnett's test, *p<0.05. FIG. 20J: Representative activity raster plots for putative LTMRs in multiple mice over the duration of recordings in controls and Shank3B^+/− mice. Mice received a subcutaneous injection of either saline or isoguvacine (2 mg/kg) during the experiment, and activity of light-touch responsive units was assessed over a 90-minute period. FIG. 20K: Average baseline spike rate of LTMRs in response to brush or air puff stimulus, in control and Shank3B^+/− mice. Student's t-test, *p<0.05. FIG. 20L: Average firing frequency of LTMRs over the duration of each recording experiment, following subcutaneous injection of either saline or isoguvacine (2 mg/kg). Repeated measures, two-way ANOVA with post-hoc Dunnett's test, *p<0.05. […] Two-way ANOVA with post-hoc Sidak's test, *, p<0.05. FIG. 20N: Response to a light air puff stimulus alone in mice following i.p. administration of either saline or 2 mg/kg isoguvacine treatment. Responses are expressed as percent of startle response to a 125 dB noise. Two-way ANOVA with post-hoc Sidak's test, *, p<0.05. FIG. 20O: Magnitude of startle response to a 125 dB noise in mice following i.p. administration of either saline or 2 mg/kg isoguvacine treatment. Responses are expressed as percent of startle response to a 125 dB noise. Two-way ANOVA with post-hoc Sidak's test, *, p<0.05.
To test the hypothesis that isoguvacine exerts its effects by acting directly on primary somatosensory neurons, electrophysiological recordings were performed both in vitro and in vivo. DRG cultures from Mecp2 and Shank3 mutant and control littermates were first produced to assess excitability of these neurons in vitro using whole cell patch-clamp recordings. […] It was next asked whether administration of isoguvacine would reduce mechanosensory neuron sensitivity in vivo by performing multiunit electrode recordings in the L4 DRG of urethane- and isoflurane-anesthetized mice (FIG. 20A). […] Once LTMR units were identified, animals were administered a subcutaneous injection of either saline vehicle or isoguvacine (2 mg/kg) and then sensitivity and firing frequency in response to tactile stimuli were monitored over a 90-minute period for each identified unit. […]

Structure (SMILES) | GABA transporter inhibition (in words) [1] | IC50 [1] | Ki [1] | inhibition at 30 µM [1] | inhibition at 0.1 µM ([1]; Conc. 0.1 μM) | inhibition at 0.3 µM ([1]; Conc. 0.3 μM) | inhibition at 1 µM ([1]; Conc. 1 μM) | inhibition at 3 µM ([1]; Conc. 3 μM) | inhibition at 10 µM ([1]; Conc. 10 μM) | inhibition at 100 µM ([1]; Conc. 100 μM) | inhibition at 300 µM ([1]; Conc. 300 μM) | inhibition at 1000 µM ([1]; Conc. 1 mM) | nH (Hill coefficient) ([1]; slope of competitive binding curve) | proprioceptor sensitivity and firing ([2]; 2 mg/kg subcutaneous) | response thresholds to light touch stimuli and spiking of glabrous- and hairy-skin innervating Aβ LTMRs ([2]; 2 mg/kg subcutaneous) | tactile stimulus-evoked LTMR sensitivity ([2]; Advillin^Cre, Gabrb3^f/f mice, 2 mg/kg subcutaneous) | LTMR firing ([2]; Shank3B and control littermates, 2 mg/kg subcutaneous) | tactile stimulus-evoked (brush or air puff) responsivity of LTMRs ([2]; control mice, sixty minutes after 2 mg/kg subcutaneous)
NC1C=C(C(=O)O)CCC1 (stereo not drawn) [Compound 5, 3-aminocyclohex-1-enecarboxylic acid hydrochloride] | potent GABA transporter inhibitor | 28.1 µM | 27.5 µM | 52% | -10% | 3% | -1% | 2% | 19% | 86% | 97% | 104% | 1.47 | – | – | – | – | –
O=C(O)C1=CCNCC1 [Isoguvacine, isoguvacine] | – | – | – | – | – | – | – | – | – | – | – | – | – | unaffected | increased response thresholds to light touch stimuli and reduced spiking | no changes in tactile stimulus-evoked LTMR sensitivity | attenuated firing | significantly decreased
